The text below walks through data of ChEMBL document CHEMBL4431331, “Design and evaluation of 1,7-naphthyridones as novel KDM5 inhibitors” (Bioorg Med Chem Lett, 2016).

Activity calls are given as the source filed them. No cut-off for these calls is given here.

By IC50 is commonly meant the concentration needed to halve the response being measured. As usually defined, the pKa is the pH at which an ionisable group is half protonated. Read a low pKa as a stronger acid or weaker base. As a reminder, the Papp A→B is the apparent permeability from the apical to the basolateral side of a cell layer.

In data set [1] the target is T1, Lysine-specific demethylase 5A (Homo sapiens, UniProt P29375). In words: Inhibition of full length human KDM5A using biotinylated H2NART(KMe3)QTARKSTGGKAPRKQLA-NTPEG-biotin as substrate after 30 to 40 mins using 1 uM of 2-OG as co-substrate by TR-FRET assay. In general terms: In TR-FRET formats the signal depends on donor and acceptor labels being close together.
T1 sequence (P29375 whole entry): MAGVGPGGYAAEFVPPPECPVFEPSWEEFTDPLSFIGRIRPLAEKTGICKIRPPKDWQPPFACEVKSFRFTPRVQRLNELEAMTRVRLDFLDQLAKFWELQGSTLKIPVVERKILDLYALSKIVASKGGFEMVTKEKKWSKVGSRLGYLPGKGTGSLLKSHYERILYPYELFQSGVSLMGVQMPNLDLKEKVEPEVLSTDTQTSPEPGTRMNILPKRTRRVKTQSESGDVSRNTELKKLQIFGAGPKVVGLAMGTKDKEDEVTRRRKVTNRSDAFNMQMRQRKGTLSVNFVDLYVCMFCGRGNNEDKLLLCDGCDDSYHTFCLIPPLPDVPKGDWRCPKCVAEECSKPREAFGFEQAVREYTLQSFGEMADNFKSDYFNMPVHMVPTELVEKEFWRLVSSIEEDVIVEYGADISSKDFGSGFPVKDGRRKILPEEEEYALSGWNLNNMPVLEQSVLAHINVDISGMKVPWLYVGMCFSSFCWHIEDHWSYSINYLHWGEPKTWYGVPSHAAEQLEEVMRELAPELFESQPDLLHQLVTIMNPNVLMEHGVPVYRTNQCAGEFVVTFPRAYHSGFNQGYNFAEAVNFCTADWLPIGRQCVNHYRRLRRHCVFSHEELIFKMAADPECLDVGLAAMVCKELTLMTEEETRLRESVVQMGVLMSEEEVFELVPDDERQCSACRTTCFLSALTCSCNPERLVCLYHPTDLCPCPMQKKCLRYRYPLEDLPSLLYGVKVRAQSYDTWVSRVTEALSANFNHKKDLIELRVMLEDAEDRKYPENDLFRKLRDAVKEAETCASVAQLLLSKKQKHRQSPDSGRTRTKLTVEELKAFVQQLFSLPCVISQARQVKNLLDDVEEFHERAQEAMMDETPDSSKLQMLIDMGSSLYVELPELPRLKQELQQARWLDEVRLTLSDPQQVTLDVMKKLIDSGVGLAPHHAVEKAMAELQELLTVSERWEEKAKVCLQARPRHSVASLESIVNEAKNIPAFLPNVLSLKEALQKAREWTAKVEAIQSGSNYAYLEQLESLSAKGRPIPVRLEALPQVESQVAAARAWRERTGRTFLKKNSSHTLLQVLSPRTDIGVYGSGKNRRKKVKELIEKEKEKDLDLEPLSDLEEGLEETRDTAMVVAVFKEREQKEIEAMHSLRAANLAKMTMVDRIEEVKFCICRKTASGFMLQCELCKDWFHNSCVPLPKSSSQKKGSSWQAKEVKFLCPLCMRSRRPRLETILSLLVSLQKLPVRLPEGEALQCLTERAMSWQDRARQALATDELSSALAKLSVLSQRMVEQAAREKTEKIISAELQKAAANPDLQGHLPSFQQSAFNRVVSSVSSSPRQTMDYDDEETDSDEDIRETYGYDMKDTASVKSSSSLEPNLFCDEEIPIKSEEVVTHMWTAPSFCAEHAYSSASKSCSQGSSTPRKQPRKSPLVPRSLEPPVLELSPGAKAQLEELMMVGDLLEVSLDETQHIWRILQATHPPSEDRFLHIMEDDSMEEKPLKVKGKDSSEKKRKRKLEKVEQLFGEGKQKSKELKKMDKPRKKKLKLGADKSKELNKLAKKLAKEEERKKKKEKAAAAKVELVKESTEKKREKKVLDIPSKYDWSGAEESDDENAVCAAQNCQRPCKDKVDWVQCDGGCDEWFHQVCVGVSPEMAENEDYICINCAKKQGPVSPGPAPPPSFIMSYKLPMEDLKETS

The nature of data set [2]: Dissociation constant, pKa of the compound. In kind it is physicochemical.
The target in data set [3] is Lysine-specific demethylase 5B (Homo sapiens, UniProt Q9UGL1). In words: Inhibition of full length human KDM5B using biotinylated H2NART(KMe3)QTARKSTGGKAPRKQLA-NTPEG-biotin as substrate after 30 to 40 mins using 2 uM of 2-OG as co-substrate by TR-FRET assay.
Lysine-specific demethylase 5B, sequence (Q9UGL1 whole entry): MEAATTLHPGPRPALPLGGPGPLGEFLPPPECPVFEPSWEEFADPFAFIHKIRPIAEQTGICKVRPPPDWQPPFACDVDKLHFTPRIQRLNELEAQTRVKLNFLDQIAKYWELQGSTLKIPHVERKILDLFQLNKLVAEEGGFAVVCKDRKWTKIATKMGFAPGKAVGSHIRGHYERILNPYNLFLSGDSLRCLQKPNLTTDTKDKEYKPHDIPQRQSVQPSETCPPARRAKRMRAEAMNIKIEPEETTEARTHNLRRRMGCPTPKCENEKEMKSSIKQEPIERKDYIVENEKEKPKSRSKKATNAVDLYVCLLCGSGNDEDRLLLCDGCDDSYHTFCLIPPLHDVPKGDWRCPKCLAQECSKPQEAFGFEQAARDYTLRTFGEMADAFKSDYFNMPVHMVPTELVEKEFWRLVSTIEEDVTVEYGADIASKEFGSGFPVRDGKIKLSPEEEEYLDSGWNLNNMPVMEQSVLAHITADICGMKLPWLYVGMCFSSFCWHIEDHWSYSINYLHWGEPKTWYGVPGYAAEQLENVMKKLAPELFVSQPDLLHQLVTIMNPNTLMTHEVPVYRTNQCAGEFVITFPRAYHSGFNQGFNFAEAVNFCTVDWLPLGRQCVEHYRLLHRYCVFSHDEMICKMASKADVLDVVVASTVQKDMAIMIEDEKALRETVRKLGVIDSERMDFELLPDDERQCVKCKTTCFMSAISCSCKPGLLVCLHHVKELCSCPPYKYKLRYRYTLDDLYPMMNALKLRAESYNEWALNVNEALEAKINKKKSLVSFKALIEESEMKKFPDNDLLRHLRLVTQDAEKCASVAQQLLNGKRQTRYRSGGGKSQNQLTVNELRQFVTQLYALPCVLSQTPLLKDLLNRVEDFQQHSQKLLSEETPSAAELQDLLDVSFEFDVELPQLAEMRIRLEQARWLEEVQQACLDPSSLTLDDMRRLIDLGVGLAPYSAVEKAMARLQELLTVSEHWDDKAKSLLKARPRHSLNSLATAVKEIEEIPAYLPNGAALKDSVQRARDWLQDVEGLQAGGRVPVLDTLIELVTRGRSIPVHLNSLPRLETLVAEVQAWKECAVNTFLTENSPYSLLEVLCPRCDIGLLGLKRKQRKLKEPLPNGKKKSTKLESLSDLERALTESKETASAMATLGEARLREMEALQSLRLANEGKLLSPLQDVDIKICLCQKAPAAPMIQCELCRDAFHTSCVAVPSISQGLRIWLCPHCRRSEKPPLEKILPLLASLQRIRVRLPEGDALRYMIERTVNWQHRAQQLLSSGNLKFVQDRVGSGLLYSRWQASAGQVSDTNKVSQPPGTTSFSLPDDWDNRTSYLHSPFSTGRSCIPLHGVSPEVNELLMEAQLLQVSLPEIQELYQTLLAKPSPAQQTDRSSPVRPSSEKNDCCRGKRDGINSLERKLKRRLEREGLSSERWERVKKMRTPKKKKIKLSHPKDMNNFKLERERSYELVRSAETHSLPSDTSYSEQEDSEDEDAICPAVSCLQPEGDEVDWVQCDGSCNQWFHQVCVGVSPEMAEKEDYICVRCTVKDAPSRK
For data set [4], the target named is Lysine-specific demethylase 5C (Homo sapiens, UniProt P41229). In words: Inhibition of full length human KDM5C using biotinylated H2NART(KMe3)QTARKSTGGKAPRKQLA-NTPEG-biotin as substrate after 30 to 40 mins using 1 uM of 2-OG as co-substrate by TR-FRET assay.
Lysine-specific demethylase 5C, sequence (P41229 whole entry): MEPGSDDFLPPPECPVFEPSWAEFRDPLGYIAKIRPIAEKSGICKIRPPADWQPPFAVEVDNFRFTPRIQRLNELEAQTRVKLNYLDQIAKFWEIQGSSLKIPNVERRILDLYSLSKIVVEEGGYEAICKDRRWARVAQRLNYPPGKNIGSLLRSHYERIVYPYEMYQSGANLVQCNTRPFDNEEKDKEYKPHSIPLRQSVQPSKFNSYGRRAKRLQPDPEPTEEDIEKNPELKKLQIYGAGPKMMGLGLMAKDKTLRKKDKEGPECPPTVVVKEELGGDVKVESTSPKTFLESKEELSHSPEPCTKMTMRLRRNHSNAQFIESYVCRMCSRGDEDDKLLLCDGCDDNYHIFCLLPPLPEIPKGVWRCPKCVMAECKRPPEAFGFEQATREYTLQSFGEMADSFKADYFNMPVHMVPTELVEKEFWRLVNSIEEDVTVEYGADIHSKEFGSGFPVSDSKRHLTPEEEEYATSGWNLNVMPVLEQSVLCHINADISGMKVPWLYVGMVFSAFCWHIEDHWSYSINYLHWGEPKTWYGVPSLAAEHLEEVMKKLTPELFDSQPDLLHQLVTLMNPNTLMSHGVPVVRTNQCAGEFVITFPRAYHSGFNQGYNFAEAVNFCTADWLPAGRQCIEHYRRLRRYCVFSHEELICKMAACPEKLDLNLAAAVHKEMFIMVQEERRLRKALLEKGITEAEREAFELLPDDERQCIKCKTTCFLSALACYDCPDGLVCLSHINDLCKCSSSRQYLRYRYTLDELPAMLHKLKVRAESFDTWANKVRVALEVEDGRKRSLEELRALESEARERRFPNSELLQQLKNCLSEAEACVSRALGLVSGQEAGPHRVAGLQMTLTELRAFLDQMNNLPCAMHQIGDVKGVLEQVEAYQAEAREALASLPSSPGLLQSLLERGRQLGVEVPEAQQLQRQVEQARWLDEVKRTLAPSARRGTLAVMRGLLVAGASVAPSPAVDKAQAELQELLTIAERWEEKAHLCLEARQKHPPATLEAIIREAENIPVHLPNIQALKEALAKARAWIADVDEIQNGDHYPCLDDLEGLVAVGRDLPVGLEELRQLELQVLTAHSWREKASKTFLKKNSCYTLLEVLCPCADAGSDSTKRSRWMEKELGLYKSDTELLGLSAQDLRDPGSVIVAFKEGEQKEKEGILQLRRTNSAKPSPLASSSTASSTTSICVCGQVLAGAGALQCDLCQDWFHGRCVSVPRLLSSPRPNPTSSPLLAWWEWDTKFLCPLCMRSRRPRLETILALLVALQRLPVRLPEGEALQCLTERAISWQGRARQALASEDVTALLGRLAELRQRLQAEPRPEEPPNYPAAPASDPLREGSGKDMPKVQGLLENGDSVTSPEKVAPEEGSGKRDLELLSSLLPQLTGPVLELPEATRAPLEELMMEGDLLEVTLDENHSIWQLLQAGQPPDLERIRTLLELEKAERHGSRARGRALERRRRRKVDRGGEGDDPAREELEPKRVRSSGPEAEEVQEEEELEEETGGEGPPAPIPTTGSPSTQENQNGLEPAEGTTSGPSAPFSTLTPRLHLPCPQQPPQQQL
Data set [5] has as its target T2, Lysine-specific demethylase 4C (Homo sapiens, UniProt Q9H3R0).
T2 sequence (Q9H3R0 whole entry): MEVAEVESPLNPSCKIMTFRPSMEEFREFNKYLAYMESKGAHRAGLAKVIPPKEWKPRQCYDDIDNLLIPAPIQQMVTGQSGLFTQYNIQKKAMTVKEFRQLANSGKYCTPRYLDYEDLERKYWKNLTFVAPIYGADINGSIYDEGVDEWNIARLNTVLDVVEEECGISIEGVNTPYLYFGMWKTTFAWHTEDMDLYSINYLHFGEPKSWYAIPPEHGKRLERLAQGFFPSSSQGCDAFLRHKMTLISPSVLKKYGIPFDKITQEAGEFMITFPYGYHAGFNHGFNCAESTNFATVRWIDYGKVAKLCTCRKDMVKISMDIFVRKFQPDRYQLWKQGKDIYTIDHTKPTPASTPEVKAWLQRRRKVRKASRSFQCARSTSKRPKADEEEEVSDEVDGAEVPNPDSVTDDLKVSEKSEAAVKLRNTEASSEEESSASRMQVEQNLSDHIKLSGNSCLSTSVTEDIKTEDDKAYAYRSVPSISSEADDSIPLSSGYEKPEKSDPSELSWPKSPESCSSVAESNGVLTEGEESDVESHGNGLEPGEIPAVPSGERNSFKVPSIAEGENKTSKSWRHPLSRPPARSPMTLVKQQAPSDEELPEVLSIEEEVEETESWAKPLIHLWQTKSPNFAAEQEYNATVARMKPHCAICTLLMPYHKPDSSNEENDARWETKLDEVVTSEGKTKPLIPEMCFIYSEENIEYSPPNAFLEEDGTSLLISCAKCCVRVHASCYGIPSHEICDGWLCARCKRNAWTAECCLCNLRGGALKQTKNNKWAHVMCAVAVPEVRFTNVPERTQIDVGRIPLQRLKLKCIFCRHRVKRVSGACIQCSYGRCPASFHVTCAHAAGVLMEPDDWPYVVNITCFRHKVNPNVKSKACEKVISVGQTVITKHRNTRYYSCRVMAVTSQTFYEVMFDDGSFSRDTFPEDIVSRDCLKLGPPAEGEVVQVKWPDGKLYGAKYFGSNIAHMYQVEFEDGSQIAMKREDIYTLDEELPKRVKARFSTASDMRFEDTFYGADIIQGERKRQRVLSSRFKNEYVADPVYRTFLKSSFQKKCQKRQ
Nature of the data set: Inhibition of full length human KDM4C using biotinylated H2N-ARTKQTAR(KMe3)STGGKAPRKQLA-NTPEGBiot as substrate after 30 mins using 3 uM of 2-OG as co-substrate by TR-FRET assay.

Data set [6] concerns the target T3, Lysine-specific demethylase 2B (Homo sapiens, UniProt Q8NHM5).
T3 sequence (Q8NHM5 whole entry): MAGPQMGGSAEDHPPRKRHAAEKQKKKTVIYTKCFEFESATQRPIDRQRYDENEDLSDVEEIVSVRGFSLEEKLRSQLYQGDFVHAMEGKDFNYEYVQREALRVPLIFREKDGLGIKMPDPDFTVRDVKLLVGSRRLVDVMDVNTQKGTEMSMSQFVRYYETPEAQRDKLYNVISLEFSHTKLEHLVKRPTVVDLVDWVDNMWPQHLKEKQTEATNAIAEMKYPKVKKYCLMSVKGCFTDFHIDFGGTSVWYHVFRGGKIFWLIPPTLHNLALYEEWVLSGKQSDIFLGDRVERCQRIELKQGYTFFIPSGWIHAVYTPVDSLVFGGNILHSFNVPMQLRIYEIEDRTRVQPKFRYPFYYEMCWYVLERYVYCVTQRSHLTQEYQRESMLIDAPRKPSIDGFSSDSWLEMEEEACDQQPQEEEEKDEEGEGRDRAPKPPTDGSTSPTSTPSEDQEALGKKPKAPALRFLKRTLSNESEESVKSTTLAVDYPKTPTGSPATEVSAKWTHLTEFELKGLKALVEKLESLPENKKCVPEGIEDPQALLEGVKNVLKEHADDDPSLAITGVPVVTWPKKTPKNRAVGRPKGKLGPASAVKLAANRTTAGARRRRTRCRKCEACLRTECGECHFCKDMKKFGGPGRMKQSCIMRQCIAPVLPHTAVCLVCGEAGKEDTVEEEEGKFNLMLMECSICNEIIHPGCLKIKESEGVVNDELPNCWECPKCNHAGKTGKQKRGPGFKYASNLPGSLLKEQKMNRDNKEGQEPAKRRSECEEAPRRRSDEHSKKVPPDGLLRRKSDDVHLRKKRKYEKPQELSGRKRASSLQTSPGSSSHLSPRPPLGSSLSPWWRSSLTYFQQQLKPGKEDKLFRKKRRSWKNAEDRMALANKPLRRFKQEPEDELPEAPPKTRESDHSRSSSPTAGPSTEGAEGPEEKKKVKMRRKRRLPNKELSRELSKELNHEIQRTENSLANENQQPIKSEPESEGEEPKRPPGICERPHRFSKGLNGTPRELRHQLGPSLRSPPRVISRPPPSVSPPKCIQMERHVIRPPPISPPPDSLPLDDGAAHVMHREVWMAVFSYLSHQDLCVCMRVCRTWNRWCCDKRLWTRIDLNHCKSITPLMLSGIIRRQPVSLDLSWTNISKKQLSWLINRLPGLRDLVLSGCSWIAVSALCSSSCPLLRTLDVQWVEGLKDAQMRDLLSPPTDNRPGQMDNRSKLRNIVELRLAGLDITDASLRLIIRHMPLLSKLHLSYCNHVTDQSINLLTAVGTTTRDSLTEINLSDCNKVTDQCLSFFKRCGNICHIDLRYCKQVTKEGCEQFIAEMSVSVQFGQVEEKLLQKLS
Nature of the data set: Inhibition of full length human KDM2B using biotinylated H2N-RKSAPATGGV(KMe2)KPHRYRPGTV-NTPEGBiot as substrate after 2 hrs using 0.3 uM of 2-OG as co-substrate by TR-FRET assay.

Data set [7] concerns the target T1, Lysine-specific demethylase 5A. In words: Inhibition of KDM5A in human PC9 cells assessed as increase in H3K4me3 levels upto 30 uM after 4 days by HTRF assay. In kind it is cell-based.
The species entered for data set [8] is Homo sapiens. Nature of the data set: Selectivity ratio of IC50 for full length human KDM4C to IC50 for full length human KDM5A.
The species named for data set [9] is Homo sapiens. In words: Selectivity ratio of IC50 for full length human KDM2B to IC50 for full length human KDM5A.
For data set [10], the target named is T1, Lysine-specific demethylase 5A. Nature of the data set: Ratio of IC50 for full length human KDM5A using biotinylated H2NART(KMe3)QTARKSTGGKAPRKQLA-NTPEG-biotin as substrate and 10 uM of 2-OG as co-substrate to IC50 for full length human KDM5A using biotinylated H2NART(KMe3)QTARKSTGGKAPRKQLA-NTPEG-biotin as substrate and 1 uM of 2-OG as co-substrate.
Data set [11] shares this target. In words: Inhibition of full length human KDM5A using biotinylated H2NART(KMe3)QTARKSTGGKAPRKQLA-NTPEG-biotin as substrate after 30 to 40 mins using 20 uM of 2-OG as co-substrate by TR-FRET assay.
Data set [12] is described as follows: Competitive inhibition of KDM5 (unknown origin) in presence of 2-OG. More on the design: species or system Homo sapiens.
Data set [13] in a line: Apparent permeability from apical to basolateral side in MDCK cells. Particulars: dog. Type of data set: ADME, cell-based, Canis lupus familiaris.
Data set [14] is described as follows: Plasma protein binding in human. Type of data set: ADME, cell-free. The conditions noted are these: read-out: PPB (converted).
Data set [15] can be described thus: Hepatic clearance in human liver microsomes. In kind it is ADME, Microsome. On the technique in general: Liver microsomes are vesicles of endoplasmic reticulum, rich in cytochrome P450 enzymes.

In the case of `N#Cc1c(O)c2ccncc2[nH]c1=O`, the IC50 in data set [1] is 0.025 µM; in [3], 0.07 µM; in data set [4], 0.17 µM; in data set [5] it was over 25 µM; in data set [6] it was over 25 µM. This compound also came in with a pKa in data set [2] of 3.5. Further, in data set [7], the inhibition result is “inactive”.
With `CCN(C)C(=O)c1c(O)c2ccncc2[nH]c1=O`, the IC50 in [1] stood at 0.7 µM.
The same measure, in the same setting: next, `N#Cc1c(O)c2ccccc2[nH]c1=O`: over 25 µM.
On to `O=c1[nH]c(C(F)(F)F)nc2cnccc12`, for which the IC50 in [1] was 0.16 µM; in data set [5], 1.9 µM; in data set [6], over 25 µM. Also, the pKa in data set [2] amounted to 4.6. Also, the results for the Ratio IC50 (in the data set listed under Homo sapiens [8]; in the data set filed under Homo sapiens [9]; in data set [10]) were 12, over 150 and 9, respectively.
`CNC(=O)c1c(O)c2ccncc2[nH]c1=O` returned an IC50 in data set [1] of 0.07 µM.
Take `CCc1c(O)c2ccncc2[nH]c1=O`: the IC50 in data set [1] turned out to be 0.23 µM; in [11], 2.1 µM.
`CCOC(=O)c1c(O)c2cccnc2[nH]c1=O` returned an IC50 in [1] of over 25 µM.
As to `CC(C)c1c(-c2ccccc2)[nH]c2c(C#N)cnn2c1=O`, the IC50 in [12] was 0.01 µM.
As to `CCNC(=O)c1c(O)c2ccncc2[nH]c1=O`, in data set [1], the half-inhibitory concentration (IC50) came to 0.05 µM. The same compound came in with a pKa in [2] of 6.4. Moreover, the inhibition result in [7] was “inactive”. In addition, the Papp A→B in [13] was 158 nm/s. Moreover, in data set [14], the fraction unbound was 0.3. Further, the CLhep predicted in data set [15] was 0.69 L/h/kg.
`CC(C)NC(=O)c1c(O)c2ccncc2[nH]c1=O` yielded an IC50 in [1] of 0.4 µM.
Still for that read-out and setting: the same measure for `CN(C)C(=O)c1c(O)c2ccncc2[nH]c1=O`: 5.3 µM; for `O=C(NCc1ccccc1)c1c(O)c2ccncc2[nH]c1=O`: over 25 µM; for `CCc1c(O)c2ccncc2n(CC)c1=O`: 3.8 µM.
Consider `O=c1cc(O)c2ccncc2[nH]1`, for which, in data set [1], the IC50 stood at 6.7 µM.
For the compound `CCOC(=O)c1c(O)nc2ccccc2c1O`, in data set [1], the IC50 is over 25 µM.
In data set [1], `O=C(c1c(O)c2ccncc2[nH]c1=O)N1CCCC1` yielded a concentration for half-maximal inhibition (IC50) of over 25 µM.
